One block for each compound: values may come before it.
Key:
[1] = target: T1, Pc-frLHC (Prasiola crispa far-red light-harvesting Chl-binding protein complex) (Prasiola crispa, UniProt C0HLU5); assay: cryo-EM structure, […] A; biochemical pigment analysis; details: native pigment, pH 6.5
T1 construct: native complex purified from thylakoids of thalli harvested in Antarctica; beta-DDM; homo-undecamer, subunit about 29 kDa

[2] = target: Prasiola crispa far-red light-harvesting Chl-binding protein complex (Pc-frLHC) subunit (Prasiola crispa); assay: cryo-EM structure; single-particle cryo-EM, C11 symmetry imposed; 6 mg protein/ml in 25 mM MES pH 6.5, 0.015% β-DDM, 0.5 M betaine; 3.13 Å

T1 sequence (C0HLU5 45-307, one chain of several): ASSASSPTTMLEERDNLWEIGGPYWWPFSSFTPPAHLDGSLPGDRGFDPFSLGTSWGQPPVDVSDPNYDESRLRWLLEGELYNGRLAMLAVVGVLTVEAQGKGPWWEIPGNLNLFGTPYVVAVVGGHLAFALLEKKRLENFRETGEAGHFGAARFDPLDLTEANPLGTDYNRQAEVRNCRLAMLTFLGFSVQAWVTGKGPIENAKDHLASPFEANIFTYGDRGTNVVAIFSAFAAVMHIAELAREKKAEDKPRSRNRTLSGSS

Compound: CC(/C=C/C=C(C)/C=C/[C@@]12O[C@]1(C)C[C@@H](O)CC2(C)C)=C\C=C\C=C(C)\C=C\C=C(C)\C=C\[C@@]12O[C@]1(C)C[C@@H](O)CC2(C)C [violaxanthin]
- cryo-EM structure, 3.13 A; biochemical pigment analysis ([1]; L1 site): Pc-frLHC binds only two carotenoids: violaxanthin (vio) and loroxanthin (loro)

Compound: CC1=C[C@H](O)CC(C)(C)[C@H]1/C=C/C(C)=C/C=C/C(C)=C/C=C/C=C(C)/C=C/C=C(/C=C/C1=C(C)C[C@@H](O)CC1(C)C)CO [loroxanthin]
- cryo-EM structure, 3.13 A; biochemical pigment analysis ([1]; L2 site): Pc-frLHC binds only two carotenoids: violaxanthin (vio) and loroxanthin (loro)

- stoichiometry N [2]: 11
Compound: Prasiola crispa far-red light-harvesting Chl-binding protein complex (Pc-frLHC) subunit (natural protein)
